Measured values published in patent publication US9365588B2, “Benzoxazines as modulators of ion channels” (Vertex Pharmaceuticals Incorporated, priority 2011, dated 2016).

Target: human NaV 1.7 (Homo sapiens, UniProt Q15858)
Test: E-VIPR optical membrane potential assay with electrical stimulation
Format: cell-based
Conditions: sodium channel inhibition; read-out: Binned Activity Data (IC50)
Summary of the method: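 Membrane-potential read-out: background-subtracted 460 nm/580 nm ratio during a 9 s current-controlled stimulus, 400 Hz scan. Before stimulation, NaV1.7-HEK cells carried coumarin/oxonol dye and compound (final DMSO 0.625%) for 20–35 min at room temperature; tetracaine 125 μM served as positive control.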

Sequence of human NaV 1.7 (Q15858 whole entry): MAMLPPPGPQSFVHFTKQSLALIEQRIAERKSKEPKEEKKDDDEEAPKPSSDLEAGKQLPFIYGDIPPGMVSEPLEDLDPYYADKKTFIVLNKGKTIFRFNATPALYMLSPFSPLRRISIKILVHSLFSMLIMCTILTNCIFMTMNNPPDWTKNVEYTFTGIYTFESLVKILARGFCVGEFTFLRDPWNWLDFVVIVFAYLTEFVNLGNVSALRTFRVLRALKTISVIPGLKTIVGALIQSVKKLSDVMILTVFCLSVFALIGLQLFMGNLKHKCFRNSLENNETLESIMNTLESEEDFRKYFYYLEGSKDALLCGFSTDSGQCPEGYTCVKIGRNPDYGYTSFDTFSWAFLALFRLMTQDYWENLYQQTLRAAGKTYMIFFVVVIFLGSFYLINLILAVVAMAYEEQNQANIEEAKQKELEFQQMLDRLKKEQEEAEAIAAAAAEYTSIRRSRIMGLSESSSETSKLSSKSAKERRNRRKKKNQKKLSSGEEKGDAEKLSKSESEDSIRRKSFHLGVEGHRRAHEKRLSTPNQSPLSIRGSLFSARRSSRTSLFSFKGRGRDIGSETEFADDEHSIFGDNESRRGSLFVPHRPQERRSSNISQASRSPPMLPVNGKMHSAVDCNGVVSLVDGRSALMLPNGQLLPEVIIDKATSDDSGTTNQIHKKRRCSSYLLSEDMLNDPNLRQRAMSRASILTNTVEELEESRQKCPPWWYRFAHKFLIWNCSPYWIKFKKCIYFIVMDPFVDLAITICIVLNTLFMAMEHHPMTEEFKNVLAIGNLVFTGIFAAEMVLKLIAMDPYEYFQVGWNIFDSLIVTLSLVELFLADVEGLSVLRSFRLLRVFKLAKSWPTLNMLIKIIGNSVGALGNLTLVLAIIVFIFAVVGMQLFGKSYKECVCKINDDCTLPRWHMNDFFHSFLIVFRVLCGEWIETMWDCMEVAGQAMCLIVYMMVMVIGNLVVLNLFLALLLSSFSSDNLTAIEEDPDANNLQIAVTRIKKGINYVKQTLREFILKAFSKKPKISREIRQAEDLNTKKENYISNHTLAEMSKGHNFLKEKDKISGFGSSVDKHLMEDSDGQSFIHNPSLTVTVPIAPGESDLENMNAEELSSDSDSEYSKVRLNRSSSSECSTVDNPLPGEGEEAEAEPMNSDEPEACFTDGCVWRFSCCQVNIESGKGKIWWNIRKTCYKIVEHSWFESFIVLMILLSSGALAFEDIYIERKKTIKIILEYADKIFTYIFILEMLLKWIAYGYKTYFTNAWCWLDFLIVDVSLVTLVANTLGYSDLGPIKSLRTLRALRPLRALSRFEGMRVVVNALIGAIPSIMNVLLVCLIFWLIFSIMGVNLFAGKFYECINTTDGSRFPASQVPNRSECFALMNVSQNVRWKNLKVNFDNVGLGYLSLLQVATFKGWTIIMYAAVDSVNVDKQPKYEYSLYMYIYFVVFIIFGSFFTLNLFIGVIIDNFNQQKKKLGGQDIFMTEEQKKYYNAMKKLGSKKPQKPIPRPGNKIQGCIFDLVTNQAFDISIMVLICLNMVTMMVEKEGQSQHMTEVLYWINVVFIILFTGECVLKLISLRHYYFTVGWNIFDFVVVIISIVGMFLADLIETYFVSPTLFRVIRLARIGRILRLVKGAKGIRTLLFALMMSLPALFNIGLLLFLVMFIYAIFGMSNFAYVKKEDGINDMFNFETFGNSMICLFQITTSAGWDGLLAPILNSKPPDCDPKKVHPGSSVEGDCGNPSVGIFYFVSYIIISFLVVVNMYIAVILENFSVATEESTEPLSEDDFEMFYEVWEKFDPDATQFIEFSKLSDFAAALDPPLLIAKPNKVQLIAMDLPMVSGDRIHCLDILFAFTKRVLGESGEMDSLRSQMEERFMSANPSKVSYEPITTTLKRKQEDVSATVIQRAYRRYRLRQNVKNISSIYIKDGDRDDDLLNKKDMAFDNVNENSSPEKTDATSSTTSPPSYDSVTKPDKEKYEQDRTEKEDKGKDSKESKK

| IC50 | SMILES |
| --- | --- |
| ≤ 2 µM | CNS(=O)(=O)c1ccc(C(=O)N2CCC3(CC2)Oc2ccccc2-n2c(C(F)(F)F)ccc23)cc1 [Compound 675] |
| ≤ 2 µM | Cc1cc(C(=O)N2CCC3(CC2)Oc2ccccc2-n2c(CNC=O)ccc23)ccc1OC(C)C [Compound 677] |
| ≤ 2 µM | COc1cc(C(=O)N2CCC3(CC2)Oc2ccccc2-n2cccc23)ccc1OC1CCC(O)C1 (stereo not shown) [Compound 678] |
| 2 to 5 µM | CC(C)S(=O)(=O)c1ccc(C(=O)N2CCC3(CC2)Oc2cc(Cl)ccc2-n2c(C#N)ccc23)cc1 [Compound 679] |
| ≤ 2 µM | CC[C@@H](C)Oc1ccc(C(=O)N2CCC3(CC2)Oc2cc(Cl)ccc2-n2cccc23)cc1OC [Compound 681] |
| ≤ 2 µM | CC(C)(O)Cc1ccc(C(=O)N2CCC3(CC2)Oc2ccccc2-n2c(C(F)(F)F)ccc23)cc1 [Compound 682] |
| ≤ 2 µM | COc1cc(C(=O)N2CCC3(CC2)Oc2cc(F)ccc2-n2cccc23)ccc1O[C@@H]1CCOC1 [Compound 683] |
| ≤ 2 µM | C[S+]([O-])c1ccc(C(=O)N2CCC3(CC2)Oc2ccccc2-n2c(C#N)ccc23)cc1C(F)(F)F (stereo not shown) [Compound 684] |
| 2 to 5 µM | CC(C)(CO)S(=O)(=O)c1ccc(C(=O)N2CCC3(CC2)Oc2ccccc2-n2c(C(F)(F)F)ccc23)cc1 [Compound 685] |
| ≤ 2 µM | COc1cc(C(=O)N2CCC3(CC2)Oc2ccccc2-n2c(C#N)ccc23)ccc1OC(C)(C)C [Compound 686] |
| ≤ 2 µM | COc1cc(C(=O)N2CCC3(CC2)Oc2ccccc2-n2cccc23)ccc1OCC(N)=O [Compound 687] |
| ≤ 2 µM | Cc1cc(C(=O)N2CCC3(CC2)Oc2ccccc2-c2nn(C)cc23)ccc1OC(C)C [Compound 689] |
| 2 to 5 µM | COc1cc(C(=O)N2CCC3(CC2)Oc2cc(Cl)ccc2-n2cccc23)ccc1O[C@H]1CCOC1 [Compound 690] |
| ≤ 2 µM | COc1cc(C(=O)N2CCC3(CC2)Oc2cc(F)ccc2-n2cccc23)ccc1OC[C@@H]1COC(C)(C)O1 [Compound 693] |
| ≤ 2 µM | COc1cc(OC(C)C)ccc1C(=O)N1CCC2(CC1)Oc1ccccc1-c1c2cnn1C [Compound 694] |
| ≤ 2 µM | CCc1ccc(C(=O)N2CCC3(CC2)Oc2cc(Cl)ccc2-n2cccc23)cc1OC [Compound 697] |
| ≤ 2 µM | COc1cc(C(=O)N2CCC3(CC2)Oc2ccccc2-n2c(C#N)ccc23)ccc1C(C)(C)CO [Compound 698] |
| ≤ 2 µM | COc1c(F)cccc1C(=O)N1CCC2(CC1)Oc1ccccc1-c1c2cnn1C [Compound 699] |
| ≤ 2 µM | Cc1cc(C(=O)N2CCC3(CC2)Oc2ccccc2-c2c3cnn2C)ccc1O [Compound 700] |
| 2 to 5 µM | Cc1ccc(C(=O)N2CCC3(CC2)Oc2ccccc2-c2c3cnn2C)cc1C [Compound 701] |
| 2 to 5 µM | COc1c(C(=O)N2CCC3(CC2)Oc2ccccc2-c2c3cnn2C)ccc(F)c1F [Compound 702] |
| ≤ 2 µM | COc1cccc(OC)c1C(=O)N1CCC2(CC1)Oc1cc(Cl)ccc1-n1cccc12 [Compound 703] |
| ≤ 2 µM | Cn1ncc2c1-c1ccccc1OC21CCN(C(=O)c2ccc(OC(C)(C)C)cc2F)CC1 [Compound 704] |
| ≤ 2 µM | CC(C)n1ncc2c1-c1ccccc1OC21CCN(C(=O)c2ccccc2OC(F)F)CC1 [Compound 705] |
| ≤ 2 µM | COCCOc1cc(C(=O)N2CCC3(CC2)Oc2cc(Cl)ccc2-n2cccc23)ccn1 [Compound 706] |
| ≤ 2 µM | CCCOc1ccc(C(=O)N2CCC3(CC2)Oc2ccccc2-c2c3cnn2C)cc1C [Compound 709] |

| IC50 | SMILES |
| --- | --- |
| ≤ 2 µM | Cc1ccc(OC(C)C)c(C(=O)N2CCC3(CC2)Oc2ccccc2-c2c3cnn2C)c1 [Compound 710] |
| ≤ 2 µM | CC(C)C(O)c1ccc(C(=O)N2CCC3(CC2)Oc2ccccc2-c2c3cnn2C)cc1 (stereo not shown) [Compound 711] |
| ≤ 2 µM | CCc1ccc(C(=O)N2CCC3(CC2)Oc2cc(C(=O)NC)ccc2-n2cccc23)cc1OC [Compound 713] |
| 2 to 5 µM | CN(C)S(=O)(=O)c1ccc(C(=O)N2CCC3(CC2)Oc2ccccc2-c2c3cnn2C)cc1 [Compound 714] |
| ≤ 2 µM | COc1cc(C(=O)N2CCC3(CC2)Oc2ccccc2-c2c3cnn2C)ccc1C(C)(C)CO [Compound 716] |
| 2 to 5 µM | Cn1c(C(=O)N2CCC3(CC2)Oc2cc(Cl)ccc2-n2cccc23)cccc1=O [Compound 718] |
| ≤ 2 µM | CC(C)NS(=O)(=O)c1ccc(C(=O)N2CCC3(CC2)Oc2ccccc2-n2c(C#N)ccc23)cc1 [Compound 721] |
| ≤ 2 µM | CC(C)(O)c1ccc(C(=O)N2CCC3(CC2)Oc2ccccc2-n2c(C(F)(F)F)ccc23)cc1 [Compound 722] |
| ≤ 2 µM | COC(=O)C(C)(C)c1ccc(C(=O)N2CCC3(CC2)Oc2cc(Cl)ccc2-n2cccc23)cc1OC [Compound 723] |
| ≤ 2 µM | COc1cccc(C(=O)N2CCC3(CC2)Oc2cc(Cl)ccc2-n2cccc23)c1 [Compound 724] |
| ≤ 2 µM | COC[C@H](C)Oc1ccc(C(=O)N2CCC3(CC2)Oc2ccccc2-n2cccc23)cc1OC [Compound 725] |
| ≤ 2 µM | CC(C)(O)c1ccc(C(=O)N2CCC3(CC2)Oc2ncccc2-n2c(C(F)(F)F)ccc23)cc1 [Compound 726] |
| ≤ 2 µM | COc1cc(C(=O)N2CCC3(CC2)Oc2ccccc2-n2cccc23)ccc1OC(C)(C)C [Compound 727] |
| ≤ 2 µM | CCn1cccc(C(=O)N2CCC3(CC2)Oc2cc(Cl)ccc2-n2cccc23)c1=O [Compound 728] |
| ≤ 2 µM | COc1ccc(C(=O)N2CCC3(CC2)Oc2cc(Cl)ccc2-n2cccc23)c(OC(F)(F)F)c1 [Compound 729] |
| ≤ 2 µM | Cc1cc(C(=O)N2CCC3(CC2)Oc2ccccc2-n2c(C(F)(F)F)ccc23)ccc1O [Compound 732] |
| 2 to 5 µM | Cc1cc(C(=O)N2CCC3(CC2)Oc2ccccc2-n2c(CN)ccc23)ccc1OC(C)C [Compound 733] |
| ≤ 2 µM | COc1cc(OC(C)(C)C#N)ccc1C(=O)N1CCC2(CC1)Oc1ccccc1-c1c2cnn1C [Compound 734] |
| ≤ 2 µM | CCc1ccc(C(=O)N2CCC3(CC2)Oc2ccccc2-n2c(C)ccc23)cc1OC [Compound 735] |
| > 5 µM | COc1ccc(C(=O)N2CCC3(CC2)Oc2cc(Cl)ccc2-n2cccc23)cc1S(N)(=O)=O [Compound 736] |
| ≤ 2 µM | Cc1cc(C(=O)N2CCC3(CC2)Oc2cc(Cl)ccc2-n2cccc23)ccc1OC(C)C [Compound 737] |
| 2 to 5 µM | CCOc1cccc(C(=O)N2CCC3(CC2)Oc2ccccc2-c2c3cnn2C)c1F [Compound 738] |
| ≤ 2 µM | COc1cccc(F)c1C(=O)N1CCC2(CC1)Oc1cc(Cl)ccc1-n1cccc12 [Compound 739] |
| ≤ 2 µM | Cn1cc2c(n1)-c1ccccc1OC21CCN(C(=O)c2ccccc2OC(F)F)CC1 [Compound 740] |
| 2 to 5 µM | Cn1ccc(C(=O)N2CCC3(CC2)Oc2cc(Cl)ccc2-n2cccc23)cc1=O [Compound 741] |
| 2 to 5 µM | CCn1ncc2c1-c1cc(F)ccc1OC21CCN(C(=O)c2ccc(OC(C)C)c(OC)c2)CC1 [Compound 742] |

| IC50 | SMILES |
| --- | --- |
| ≤ 2 µM | CC[C@H](C)Oc1ccc(C(=O)N2CCC3(CC2)Oc2ccccc2-n2cccc23)cc1C#N [Compound 744] |
| ≤ 2 µM | Cc1cc(C(=O)N2CCC3(CC2)Oc2ccccc2-c2c3cnn2C)cc(C)c1OC(C)C [Compound 745] |
| 2 to 5 µM | Cc1c(CO)cccc1C(=O)N1CCC2(CC1)Oc1ccccc1-c1c2cnn1C [Compound 746] |
| > 5 µM | COc1cc(C(=O)N2CCC3(CC2)Oc2ccccc2-c2nn(C)cc23)cc(OC)c1OC [Compound 747] |
| 2 to 5 µM | COc1cccc(OC)c1C(=O)N1CCC2(CC1)Oc1ccccc1-c1c2cnn1C [Compound 748] |
| ≤ 2 µM | Cc1cc(C(=O)N2CCC3(CC2)Oc2ccccc2-c2c3cnn2C)ccc1C(C)(C)O [Compound 750] |
| ≤ 2 µM | COc1cc(C(=O)N2CCC3(CC2)Oc2cc(Cl)ccc2-n2cccc23)ccc1OC[C@@H]1COC(C)(C)O1 [Compound 751] |
| ≤ 2 µM | O=C(c1ccccc1OC(F)F)N1CCC2(CC1)Oc1ccccc1-c1nn(C(F)(F)F)cc12 [Compound 752] |
| > 5 µM | COc1cc(C(=O)N2CCC3(CC2)Oc2ccccc2-c2nn(C)cc23)ccc1C(C)(C)C [Compound 754] |
| ≤ 2 µM | COc1cc(C(=O)N2CCC3(CC2)Oc2ccccc2-n2c(C#N)ccc23)ccc1OCC(C)C [Compound 755] |
| ≤ 2 µM | COc1cc(C(=O)N2CCC3(CC2)Oc2ccccc2-c2c3cnn2C)ccc1OC(C)(C)C#N [Compound 758] |
| ≤ 2 µM | COc1cc(C(=O)N2CCC3(CC2)Oc2cc(Cl)ccc2-n2cccc23)ccc1OC[C@H]1COC(C)(C)O1 [Compound 759] |
| ≤ 2 µM | COCCOc1ccc(C(=O)N2CCC3(CC2)Oc2ccccc2-c2c3cnn2C)cc1C [Compound 761] |
| ≤ 2 µM | CC(C)(O)c1ccc(C(=O)N2CCC3(CC2)Oc2ccccc2-n2c(C#N)ccc23)cc1 [Compound 762] |
| 2 to 5 µM | COc1cccc(F)c1C(=O)N1CCC2(CC1)Oc1ccccc1-c1c2cnn1C [Compound 763] |
| ≤ 2 µM | CCCOc1ccc(C(=O)N2CCC3(CC2)Oc2ccccc2-n2cccc23)cc1C [Compound 764] |
| ≤ 2 µM | Cc1[nH]c2c(C(=O)N3CCC4(CC3)Oc3ccccc3-c3c4cnn3C)cccc2c1C [Compound 765] |
| ≤ 2 µM | Cn1cc2c(n1)-c1ccccc1OC21CCN(C(=O)c2ccc(S(=O)(=O)NC3CC3)cc2)CC1 [Compound 767] |
| ≤ 2 µM | COc1cc(C(=O)N2CCC3(CC2)Oc2ccccc2-n2c3ccc2S(C)(=O)=O)ccc1OC(C)C [Compound 768] |
| ≤ 2 µM | CCOc1c(F)cccc1C(=O)N1CCC2(CC1)Oc1ccccc1-n1c(C#N)ccc12 [Compound 769] |
| ≤ 2 µM | CC(C)Oc1cccc(C(=O)N2CCC3(CC2)Oc2ccccc2-n2c(C#N)ccc23)c1F [Compound 770] |
| ≤ 2 µM | Cn1ncc2c1-c1ccccc1OC21CCN(C(=O)c2ccccc2OCCO)CC1 [Compound 771] |
| ≤ 2 µM | COc1cc(C(=O)N2CCC3(CC2)Oc2cc(F)ccc2-n2cccc23)ccc1OCC(N)=O [Compound 772] |
| ≤ 2 µM | Cc1ccc(C(=O)N2CCC3(CC2)Oc2ccccc2-c2c3cnn2C)c(Cl)c1 [Compound 773] |
